Laboratory results from patent US8791148B2, “Substituted benzimidazolone derivatives, medicaments comprising them and their use” (AbbVie Deutschland GmbH & Co. KG, priority 2006, dated 2014).

Target: T1, human vasopressin V1b receptor (Homo sapiens, UniProt P47901)
T1 construct: expressed in transfected cells; host or cells: CHO-K1 (cell line hV1b-3H2_CHO), membrane preparation
T1 sequence (P47901 1-424): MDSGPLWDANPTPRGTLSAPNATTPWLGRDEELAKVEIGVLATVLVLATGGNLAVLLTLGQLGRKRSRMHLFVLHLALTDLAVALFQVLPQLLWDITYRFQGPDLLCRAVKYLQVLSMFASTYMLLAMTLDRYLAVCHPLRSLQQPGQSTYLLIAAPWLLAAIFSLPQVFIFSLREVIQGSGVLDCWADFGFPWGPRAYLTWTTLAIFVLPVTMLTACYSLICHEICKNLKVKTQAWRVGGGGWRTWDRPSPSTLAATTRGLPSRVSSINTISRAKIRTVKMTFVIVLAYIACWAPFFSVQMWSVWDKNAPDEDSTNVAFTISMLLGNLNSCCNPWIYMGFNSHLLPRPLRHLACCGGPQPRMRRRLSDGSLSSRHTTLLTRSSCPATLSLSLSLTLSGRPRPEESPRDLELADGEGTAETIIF
Assay: Vasopressin V1b receptor binding assay
Conditions: membranes from CHO-K1 cells with stably expressed human V1b receptors; displacement of 1.5 nM 3H-AVP; read-out: V1b receptor affinity (affinity constant Ki)
How it was run: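 Ki values come from nonlinear regression of triplicate scintillation counts after filtration. Test compound (2% DMSO in the mixture) and radioligand were incubated 60 min at room temperature with human V1b membranes in pH 7.4 Tris buffer with 10 mM MgCl2 and 0.1% BSA. Nonspecific binding was set with 1 uM AVP.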

Row | SMILES | Ki [nM]
1 | COc1ccc(S(=O)(=O)n2c(=O)n(C(C(=O)N3CC[C@@H](N)C3)c3ccccc3)c3cc(C#N)ccc32)cc1 (stereo partly drawn) [Example 172, 3-[2-((R)-3-Aminopyrrolidin-1-yl)-2-oxo-1-phenylethyl]-1-(4-methoxybenzenesulfonyl)-2-oxo-2,3-dihydro-1H-benzimidazole-5-carbonitrile] | 500 to 10000
2 | COc1ccc(S(=O)(=O)n2c(=O)n(C(C(=O)N[C@H]3CCNC3)c3ccccc3)c3cc(Cl)ccc32)cc1 (stereo partly drawn) [Example 173, 2-[6-Chloro-3-(4-methoxybenzenesulfonyl)-2-oxo-2,3-dihydrobenzimidazol-1-yl]-2-phenyl-N—(S)-pyrrolidin-3-ylacetamide] | 500 to 10000
3 | COc1ccc(S(=O)(=O)n2c(=O)n(C(C(=O)N[C@@H]3CCNC3)c3ccccc3)c3cc(Cl)ccc32)cc1 (stereo partly drawn) [Example 174, 2-[6-Chloro-3-(4-methoxybenzenesulfonyl)-2-oxo-2,3-dihydrobenzimidazol-1-yl]-2-phenyl-N—(R)-pyrrolidin-3-ylacetamide] | 500 to 10000
4 | COc1ccc(S(=O)(=O)n2c(=O)n(C(C(=O)N3CCC(NC4CCNCC4)C3)c3ccccc3)c3cc(Cl)ccc32)cc1 (centres unmarked) [Example 175, 5-Chloro-1-(4-methoxybenzenesulfonyl)-3-{2-oxo-1-phenyl-2-[3-(piperidin-4-ylamino)pyrrolidin-1-yl]ethyl}-1,3-dihydrobenzimidazol-2-one] | < 100
5 | COc1ccc(S(=O)(=O)n2c(=O)n(C(C(=O)N3CC[C@@H](NC4CCNCC4)C3)c3ccccc3)c3cc(Cl)ccc32)cc1 (stereo partly drawn) [Example 176, 5-Chloro-1-(4-methoxybenzenesulfonyl)-3-{2-oxo-1-phenyl-2-[(R)-3-(piperidin-4-ylamino)pyrrolidin-1-yl]ethyl}-1,3-dihydrobenzimidazol-2-one] | < 100
6 | COc1ccc(S(=O)(=O)n2c(=O)n(C(C(=O)N3CC[C@H](NC4CCNCC4)C3)c3ccccc3)c3cc(Cl)ccc32)cc1 (stereo partly drawn) [Example 177, 5-Chloro-1-(4-methoxybenzenesulfonyl)-3-{2-oxo-1-phenyl-2-[(S)-3-(piperidin-4-ylamino)pyrrolidin-1-yl]ethyl}-1,3-dihydrobenzimidazol-2-one] | < 100
7 | COc1ccc(S(=O)(=O)n2c(=O)n(C(C(=O)N3CC[C@H](N4CCN(C(C)C)CC4)C3)c3ccccc3)c3cc(C#N)ccc32)cc1 (stereo partly drawn) [Example 189, 3-{2-[(S)-3-(4-Isopropylpiperazin-1-yl)pyrrolidin-1-yl]-2-oxo-1-phenylethyl}-1-(4-methoxybenzenesulfonyl)-2-oxo-2,3-dihydro-1H-benzimidazole-5-carbonitrile] | < 100
8 | CCCN1CCN([C@H]2CCCN(C(=O)C(c3ccccc3)n3c(=O)n(S(=O)(=O)c4ccc(OC)cc4)c4ccc(C#N)cc43)C2)CC1 (stereo partly drawn) [Example 191, 1-(4-Methoxybenzenesulfonyl)-2-oxo-3-{2-oxo-1-phenyl-2-[(S)-3-(4-propylpiperazin-1-yl)piperidin-1-yl]ethyl}-2,3-dihydro-1H-benzimidazole-5-carbonitrile] | < 100
9 | COc1ccc(S(=O)(=O)n2c(=O)n(C(C(=O)N3CCC[C@H](N4CCN(C)CC4)C3)c3ccccc3)c3cc(C#N)ccc32)cc1 (stereo partly drawn) [Example 193, 1-(4-Methoxybenzenesulfonyl)-3-{2-[(S)-3-(4-methylpiperazin-1-yl)piperidin-1-yl]-2-oxo-1-phenylethyl}-2-oxo-2,3-dihydro-1H-benzimidazole-5-carbonitrile] | < 100
10 | COc1ccc(S(=O)(=O)n2c(=O)n(C(C(=O)N3CCC[C@H](N4CCNCC4)C3)c3ccccc3)c3cc(C#N)ccc32)cc1 (stereo partly drawn) [Example 195, 1-(4-Methoxybenzenesulfonyl)-2-oxo-3-[2-oxo-1-phenyl-2-((S)-3-piperazin-1-ylpiperidin-1-yl)ethyl]-2,3-dihydro-1H-benzimidazole-5-carbonitrile] | < 100
11 | CCCN1CCN([C@H]2CCN(C(=O)C(c3ccccc3)n3c(=O)n(S(=O)(=O)c4ccc(OC)cc4OC)c4ccc(C#N)cc43)C2)CC1 (stereo partly drawn) [Example 199, 1-(2,4-Dimethoxybenzenesulfonyl)-2-oxo-3-{2-oxo-1-phenyl-2-[(S)-3-(4-propylpiperazin-1-yl)pyrrolidin-1-yl]ethyl}-2,3-dihydro-1H-benzimidazole-5-carbonitrile] | < 100
12 | CCCN1CCN([C@H]2CCN(C(=O)C(c3ccccc3)n3c(=O)n(S(=O)(=O)c4cccc5cccnc45)c4ccc(C#N)cc43)C2)CC1 (stereo partly drawn) [Example 200, 2-oxo-3-{2-oxo-1-phenyl-2-[(S)-3-(4-propylpiperazin-1-yl)pyrrolidin-1-yl]-ethyl}-1-(quinoline-8-sulfonyl)-2,3-dihydro-1H-benzimidazole-5-carbonitrile] | 500 to 10000
13 | CCCN1CCN([C@H]2CCN(C(=O)C(c3ccccc3)n3c(=O)n(S(=O)(=O)c4cccs4)c4ccc(C#N)cc43)C2)CC1 (stereo partly drawn) [Example 201, 2-oxo-3-{2-oxo-1-phenyl-2-[(S)-3-(4-propylpiperazin-1-yl)pyrrolidin-1-yl]-ethyl}-1-(thiophene-2-sulfonyl)-2,3-dihydro-1H-benzimidazole-5-carbonitrile] | 100 to 500
14 | CCCN1CCN([C@H]2CCN(C(=O)C(c3ccccc3)n3c(=O)n(S(=O)(=O)c4ccccc4)c4ccc(C#N)cc43)C2)CC1 (stereo partly drawn) [Example 202, 1-Benzenesulfonyl-2-oxo-3-{2-oxo-1-phenyl-2-[(S)-3-(4-propylpiperazin-1-yl)-pyrrolidin-1-yl]ethyl}-2,3-dihydro-1H-benzimidazole-5-carbonitrile] | 100 to 500
15 | CCCN1CCN([C@H]2CCN(C(=O)C(c3ccccc3)n3c(=O)n(S(=O)(=O)c4ccsc4)c4ccc(C#N)cc43)C2)CC1 (stereo partly drawn) [Example 203, 2-oxo-3-{2-oxo-1-phenyl-2-[(S)-3-(4-propylpiperazin-1-yl)pyrrolidin-1-yl]-ethyl}-1-(thiophene-3-sulfonyl)-2,3-dihydro-1H-benzimidazole-5-carbonitrile] | < 100
16 | CCCN1CCN([C@H]2CCN(C(=O)C(c3ccccc3)n3c(=O)n(S(=O)(=O)c4ccc(C)cn4)c4ccc(C#N)cc43)C2)CC1 (stereo partly drawn) [Example 204, 1-(5-Methylpyridine-2-sulfonyl)-2-oxo-3-{2-oxo-1-phenyl-2-[(S)-3-(4-propylpiperazin-1-yl)pyrrolidin-1-yl]ethyl}-2,3-dihydro-1H-benzimidazole-5-carbonitrile] | 100 to 500
17 | CCCN1CCN([C@H]2CCN(C(=O)C(c3ccccc3)n3c(=O)n(S(=O)(=O)c4ccccc4OC)c4ccc(C#N)cc43)C2)CC1 (stereo partly drawn) [Example 205, 1-(2-Methoxybenzenesulfonyl)-2-oxo-3-{2-oxo-1-phenyl-2-[(S)-3-(4-propylpiperazin-1-yl)pyrrolidin-1-yl]ethyl}-2,3-dihydro-1H-benzimidazole-5-carbonitrile] | 500 to 10000
18 | COc1ccc(S(=O)(=O)n2c(=O)n(C(C(=O)N3CCC(NC4CCN(C)CC4)CC3)c3ccccc3)c3cc(C#N)ccc32)cc1 (centres unmarked) [Example 206, 1-(4-Methoxybenzenesulfonyl)-3-{2-[4-(1-methylpiperidin-4-ylamino)piperidin-1-yl]-2-oxo-1-phenylethyl}-2-oxo-2,3-dihydro-1H-benzimidazole-5-carbonitrile] | < 100
19 | COc1ccc(S(=O)(=O)n2c(=O)n(C(C(=O)N3CC[C@H](NC4CCN(C)CC4)C3)c3ccccc3)c3cc(C#N)ccc32)cc1 (stereo partly drawn) [Example 207, 1-(4-Methoxybenzenesulfonyl)-3-{2-[(S)-3-(1-methylpiperidin-4-ylamino)-pyrrolidin-1-yl]-2-oxo-1-phenylethyl}-2-oxo-2,3-dihydro-1H-benzimidazole-5-carbonitrile] | < 100
20 | COc1ccc(S(=O)(=O)n2c(=O)n(C(C(=O)N3CC[C@H](NC4CCN(C(C)C)CC4)C3)c3ccccc3)c3cc(C#N)ccc32)cc1 (stereo partly drawn) [Example 208, 3-{2-[(S)-3-(1-Isopropylpiperidin-4-ylamino)pyrrolidin-1-yl]-2-oxo-1-phenylethyl}-1-(4-methoxybenzenesulfonyl)-2-oxo-2,3-dihydro-1H-benzimidazole-5-carbonitrile] | < 100
21 | CCN1CCC(N[C@H]2CCN(C(=O)C(c3ccccc3)n3c(=O)n(S(=O)(=O)c4ccc(OC)cc4)c4ccc(C#N)cc43)C2)CC1 (stereo partly drawn) [Example 209, 3-{2-[(S)-3-(1-Ethylpiperidin-4-ylamino)pyrrolidin-1-yl]-2-oxo-1-phenylethyl}-1-(4-methoxybenzenesulfonyl)-2-oxo-2,3-dihydro-1H-benzimidazole-5-carbonitrile] | < 100
22 | CCCN1CCC(N[C@H]2CCN(C(=O)C(c3ccccc3)n3c(=O)n(S(=O)(=O)c4ccc(OC)cc4)c4ccc(C#N)cc43)C2)CC1 (stereo partly drawn) [Example 210, 1-(4-Methoxybenzenesulfonyl)-2-oxo-3-{2-oxo-1-phenyl-2-[(S)-3-(1-propylpiperidin-4-ylamino)pyrrolidin-1-yl]ethyl}-2,3-dihydro-1H-benzimidazole-5-carbonitrile] | < 100
23 | COc1ccc(S(=O)(=O)n2c(=O)n(C(C(=O)N3CC[C@H](N(C)C4CCN(C)CC4)C3)c3ccccc3)c3cc(C#N)ccc32)cc1 (stereo partly drawn) [Example 211, 1-(4-Methoxybenzenesulfonyl)-3-(2-{(S)-3-[methyl-(1-methylpiperidin-4-yl)-amino]pyrrolidin-1-yl}-2-oxo-1-phenylethyl)-2-oxo-2,3-dihydro-1H-benzimidazole-5-carbonitrile] | < 100
